Reference: ChEMBL document CHEMBL5356976, “Discovery of an adjuvant that resensitizes polymyxin B-resistant bacteria” (2024)
Values after ≈ are worked out from the molar mass of the structure shown. Active and inactive are the calls of the source. The calls are words filed in the database; no cut-off is given here. Bridge positions count the residues as written; N and C are the ends. Square brackets hold non-standard residues; d marks the D form. Peptide text beside a SMILES is read from it. * marks the point of attachment. X1 = CC[C@H](C)CCCCC(=O)*; Dab = NCC[C@H](N)C(=O)O

Legend:
Escherichia coli [1] = experiment: Antibacterial activity against polymyxin-B resistant Escherichia coli MG1655; assay type: functional
Escherichia coli [2] = experiment: Antibacterial activity against Escherichia coli MG1655; assay type: functional
Escherichia coli [3] = experiment: Antibacterial activity against resistant Escherichia coli MG1655; assay type: functional
Escherichia coli [4] = experiment: Antibacterial activity against Escherichia coli MG1655 in presence of 6.25 mg/l perforone; assay type: functional
Escherichia coli [5] = experiment: Antibacterial activity against Escherichia coli MG1655 in presence of 50 mg/l perforone; assay type: functional
Escherichia coli [6] = experiment: Synergistic antibacterial activity against polymyxin B resistant Escherichia coli MG1655 assessed as fractional inhibitory concentration by checkerboard assay; assay type: functional
Escherichia coli [7] = experiment: Synergistic antibacterial activity against polymyxin B resistant Escherichia coli MG1655 assessed as fold reduction in polymyxin B MIC by checkerboard assay; assay type: functional
Escherichia coli [8] = experiment: Additive antibacterial activity against Escherichia coli MG1655 assessed as fold reduction in polymyxin B MIC at 100 mg/L by checkerboard assay; assay type: functional
Staphylococcus aureus = experiment: Synergistic antibacterial activity against Staphylococcus aureus ATCC 29213 assessed as fold reduction in melittin activity at 75 mg/l by checkerboard assay; assay type: functional
Cell membrane [9] = experiment: Induction of membrane permeabilization in polymyxin-B resistant Escherichia coli MG1655 assessed as fluorescence increase incubated for 10 mins in presence of polymyxin B by DiSC3(5) dye based fluorescence spectrometer analysis; assay type: subcellular
Cell membrane [10] = experiment: Induction of membrane permeabilization in polymyxin-B resistant Escherichia coli MG1655 assessed as fluorescence increase incubated for 10 mins in presence of triton X-100 by DiSC3(5) dye based fluorescence spectrometer analysis; assay type: subcellular
Cell membrane [11] = experiment: Induction of membrane permeabilization in polymyxin-B resistant Escherichia coli MG1655 assessed as increase in fluorescence by DiSC3(5) staining based fluorescence spectrometer analysis (reference value: 8.5); assay type: subcellular
Cell membrane [12] = experiment: Induction of membrane permeabilization in polymyxin-B resistant Escherichia coli MG1655 assessed as increase in fluorescence after 4 mins by DiSC3(5) staining based fluorescence spectrometer analysis (reference value: 8.5); assay type: subcellular

`CC(C)C[C@@H]1NC(=O)[C@@H](Cc2ccccc2)NC(=O)[C@H](CCN)NC(=O)[C@@H](NC(=O)[C@H](CCN)NC(=O)[C@@H](NC(=O)[C@@H](N)CCN)[C@@H](C)O)CCNC(=O)[C@H]([C@@H](C)O)NC(=O)[C@H](CCN)NC(=O)[C@H](CCN)NC1=O` (H-[Dab]T[Dab][Dab][Dab][dF]L[Dab][Dab]T; lactam 4-C) was tested, and the Activity (Escherichia coli [1]) was “Active”.

Molecule `CC[C@H]1OC(=O)[C@H](C)[C@@H](O[C@H]2C[C@@](C)(OC)[C@@H](O)[C@H](C)O2)[C@H](C)[C@@H](O[C@@H]2O[C@H](C)C[C@H](N(C)C)[C@H]2O)[C@](C)(O)C[C@@H](C)CN(C)[C@H](C)[C@@H](O)[C@]1(C)O` [AZITHROMYCIN] has an MIC (Escherichia coli [2]) of 4 µg/mL (≈ 5.34 µM) and an MIC (Escherichia coli [3]) of 128 µg/mL (≈ 171 µM).

`CC[C@H](C)CCCCC(=O)N[C@@H](CCN)C(=O)N[C@H](C(=O)N[C@@H](CCN)C(=O)N[C@H]1CCNC(=O)[C@H]([C@@H](C)O)NC(=O)[C@H](CCN)NC(=O)[C@H](CCN)NC(=O)[C@H](CC(C)C)NC(=O)[C@@H](Cc2ccccc2)NC(=O)[C@H](CCN)NC1=O)[C@@H](C)O` (X1-[Dab]T[Dab][Dab][Dab][dF]L[Dab][Dab]T; lactam 4-C) was tested, and the MIC (Escherichia coli [2]) was 0.5 µg/mL (≈ 0.415 µM), the MIC (Escherichia coli [3]) was 256 µg/mL (≈ 213 µM) and the MIC (Escherichia coli [1]) was 256 µg/mL (≈ 213 µM). For the same molecule, the MIC (Escherichia coli [4]) was 2 µg/mL and the MIC (Escherichia coli [5]) was 16 µg/mL.

For `COc1c2c(nc3occc13)[C@@]1(OC)CCC(C)(C)O[C@@]1(O)CC2`, the FIC (Escherichia coli [6]) was 0.19, the “fold change (FC)” value (Escherichia coli [7]) was 16 and the “fold change (FC)” value (Escherichia coli [8]) was 2. For the same molecule, the “fold change (FC)” value (Staphylococcus aureus) was 2, the Activity (Cell membrane [9]) was “inactive” and the Activity (Cell membrane [10]) was “inactive”. For the same molecule, the Flu intensity (Cell membrane [11]) was 29.2 a.u and the Flu intensity (Cell membrane [12]) was 19.7 a.u.

`C[C@H]1c2cccc(O)c2C(=O)C2=C(O)[C@]3(O)C(=O)C(C(N)=O)=C(O)[C@@H](N(C)C)[C@@H]3[C@@H](O)[C@@H]21.O` [DOXYCYCLINE] was tested, and the MIC (Escherichia coli [2]) was 0.25 µg/mL and the MIC (Escherichia coli [3]) was 60 µg/mL.
